Measured values from patent US20080153792A1, “Drug Identification and Treatment Method” (priority 2006, published 2008).

Tests used:
Format in all cases: in vivo, mouse
[1] = tested on: DBA/1Lac/J mice, collagen induced arthritis; assay: collagen induced arthritis (CIA), Foxp3+ cells and clinical score
Protocol: Increase of CD4^+CD25^+ T regulatory cells or their activity in vivo. The compound 17α-ethynylandrost-5-ene-3β,7β,17β-triol was administered to mice essentially as described in a previously described collagen induced arthritis animal model. H. Offner et al., Clin. Immunol., 110:181-190, 2006.
DBA/1Lac/J mice were used for the study. The mice were obtained from Jackson Laboratories (Bar Harbor, Harbor, […].) and housed in accordance with applicable institutional guidelines. Bovine type II collagen (bCll) was used to induce collagen induced arthritis (CIA) by immunizing 8-week-old mice with 200 μg of bCII emulsified 1:1 with CFA containing 200 μg Mycobacterium tuberculosis (100 μL; Difco, Detroit, Mich.). The antigen was injected intradermally at the base of the tail. The animals were monitored for 4-7 weeks to observe the onset and progression of the disease post-immunization. The arthritic severity was evaluated with a grading system for each paw according to the following scale: 0=no redness or swelling; 1=slight swelling in ankle or redness in foot; 2=progressed swelling and inflammation and redness from ankle to mid foot; 3=swelling and inflammation of entire foot; 4=swelling and inflammation of entire foot including toes.
After immunization, the mice were treated with the drug at 40 mg/kg/day in vehicle by oral gavage beginning at the start of observable clinical disease (beginning at about 26-27 days after immunization). The vehicle that was used for the protocol was 30% cyclodextrin-sulfobutylether in water. The cyclodextrin-sulfobutylether was obtained commercially (Captisol™ available at cyclexinc.com). The drug formulation was 20 mg drug/mL in the vehicle.

[2] = tested on: mice treated daily with dexamethasone; assay: osteoprotegerin levels in dexamethasone treated mice; settings: vehicle, dexamethasone 10 μg/day and compound at 4 mg/kg/day; p<0.05
Protocol: Osteoprotegerin levels in mice that were treated with vehicle and dexamethasone at 10 μg/day (positive control group) had 3.3 pMol/L osteoprotegerin, while animals treated with vehicle, dexamethasone and 17α-ethynyl-5-androstene-3β,7β,17β-triol at 4 mg/kg/day had 6.4 pMol/L osteoprotegerin (p<0.05).

[3] = tested on: monocyte chemoattractant protein-1 (MCP-1); assay: MCP-1 RNA in perigonadal fat tissue, quantitative RT/PCR; settings: 20 mg/kg; normalized with respect to the vehicle control
Protocol: In another study, total RNA from perigonadal fat tissue from lean db/+ or diabetic db/db mice treated with 20 mg/kg of 17α-ethynylandrost-5-ene-3β,7β,17β-triol was isolated and processed for quantitative RT/PCR using primers specific for monocyte chemoattractant protein-1 (MCP-1) using an iCycler iQ multicolor real time-detection system (Bio-Rad). RNA expression levels were normalized with respect to the vehicle control. […] For this study, vehicle was also administered to a control group of age matched lean heterozygous db/+ mice (n=7).

[4] = tested on: 8 week old db/db diabetic mice; assay: hyperinsulinemic-euglycemic clamp in db/db mice; settings: oral gavage 14 days; insulin 10 mU/kg/min
Protocol: Glucose lowering in 8 week old db/db diabetic mice. The hyperinsulinemic-euglycemic clamp protocol was conducted to measure insulin sensitivity in vivo. In this procedure, insulin was administered to raise the insulin concentration while glucose was infused to maintain euglycemia or a fixed, normal blood glucose level (about 180 mg/dL). […] The objective of this protocol was to investigate characterize the capacity of 17α-ethynylandrost-5-ene-3β,7β,17β-triol and androst-5-ene-3β,7β,16α,17β-tetrol to ameliorate systemic insulin resistance and improve whole body glucose disposal in the hyperinsulinemic-euglycemic clamp model. The degree of skeletal muscle and hepatic insulin sensitivity and tissue specific glucose uptake were also assessed. The animals were dosed daily by oral gavage for 14 days. On Day 10 of treatment catheters were implanted in the carotid artery and jugular vein. On the day of the clamp (day 14) the compound was administered at 7:30 am.
Body weight and glucose concentration were assessed on day 0, 7 and day 14 of treatment. On day 14 a euglycemic hyperinsulinemic clamp was performed. […] Plasma ^14C 2-deoxyglucose was assessed at 122, 125, 130, 135, 145 min. […]
Analysis was conducted as follows. Plasma samples were deproteinized with Ba(OH)2 (0.3 N) and ZnSO4 (0.3 N), dried and radioactivity was assessed on scintillation counter (Packard TRICARB 2900 TR, Meriden, Conn.). […] One supernatant was directly counted to determine radioactivity from both [14C] […] A second aliquot was treated with Ba(OH)2 and ZnSO4 to remove ^14C DGP and any tracer incorporated into glycogen and then counted to determine radioactivity from free [^14C]DG(2). [^14C]DGP was calculated as the difference between the two aliquots. […] Rg, an index of tissue specific glucose uptake was calculated as previously described (E. W. Kraegen et al., Am. J. Physiol., 248:E353-E362, 1985). Whole body glucose turnover was calculated as the ratio of the ^3H glucose infusion rate (dpm/kg/min) and arterial plasma glucose specific activity (dpm/mg). […]

[5] = 40 mg/kg/day oral gavage from onset of clinical disease, n = 3

`C#C[C@]1(O)CC[C@H]2[C@@H]3[C@@H](O)C=C4C[C@@H](O)CC[C@]4(C)[C@H]3CC[C@@]21C` [17α-ethynylandrost-5-ene-3β,7β,17β-triol] was tested, and the “CD4^+Foxp3^+ cells in whole splenocytes” value [1, 5] was 1.34% ± 0.05, the “Total Foxp3^+ cells in whole splenocytes” value [1, 5] was 2.39% ± 0.16 and the “Foxp3+ CD4^+ cells by cell sorter analysis” value ([1]; 40 mg/kg/day, control animals 1.0%) was 1.4%. The “maximum mean clinical score” value ([1]; at day 34, vehicle about 6.8-8 between days 34-49) was “about 5”, the mean clinical score ([1]; by day 49) was “about 3” and the osteoprotegerin [2] was 6.4 pmol/L. For the same compound, the “decrease of levels of MCP-1” value [3] was “about 50%” and the “glucose infusion rate compared to the vehicle control” value [4] was “increased the glucose infusion rate”.
